Data as given in patent publication US4064169A, “Bis-(meta-amidinophenoxy)-compounds and pharmacologically acceptable acid addition salts thereof” (Eisai Co., Ltd., priority 1976, dated 1977).

Tests used:
Assay in all cases: Antifungal Test (agar dilution M.I.C.)
Assay type in all cases: cell-based
Details in all cases: Table 2; 37° C., 3 days (72 hours)
[1] = system: Candida albicans AHU 3656
Experimental: (§1) Respective agar plates were prepared by dissolving compounds under test in aseptic water to make a two fold dilution series, taking each 1 milliliter of said diluted solutions and 9 ml of Sabouraud medium into a petri dish, and sufficiently admixing the same.
(§2) On the other hand, an inoculum was prepared by cultivating an examined fungus (microorganism) on the Sabouraud slant medium and suspending two loopful of the incubated fungus in 10 ml of sterilized physiological saline water.
(§3) One loopful of the inoculum was streaked on the above-mentioned agar plate. After the agar plate was incubated at a defined temperature for a predetermined period of time to determine the minimal inhibitory concentration (M.I.C.).
(§4) Incubation temperature:
(§5) Incubation time: 3 days (72 hours) and
(§6) Incubation time: 3 days (72 hours)
(§7) activity incubation conditions:
(§8) Incubation time 3 days (72 hours)
(§9) Incubation time 7 days (168 hours)
(§10) Incubation time 2 days (48 hours)

[2] = system: Candida albicans NAKAGAWA IFM 4017
Experimental: as §1, §2, §3, §4, §5, §6, §7, §8, §9, §10

[3] = system: Candida albicans Yu-1200 IFM 4020
Experimental: as §1, §2, §3, §4, §5, §6, §7, §8, §9, §10

Measured: M.I.C.

C[C@@H]1[C@H](O)[C@@H](C)/C=C/C=C/CC/C=C/C=C/C=C/C=C/C(O[C@H]2O[C@H](C)[C@@H](O)[C@H](N)[C@@H]2O)CC2O[C@](O)(CC(O)C(O)CCC(O)CC(O)CC(O)CC(=O)O[C@H]1C)CC(O)C2C(=O)O (stereo partly drawn) [Nystatin, reference compound]
6.25 µg/mL: all assays above
